Experimental data published in ChEMBL document CHEMBL6087386, “Radioprotective effectiveness of a novel delta-tocotrienol prodrug on mouse hematopoietic system against 60Co gamma-ray irradiation through inducing granulocyte-colony stimulating factor production” (Eur J Med Chem, 2024).
The source made the active and inactive calls. No cut-off for these calls is given here.

Assays:
Mus musculus [1] = experiment: Radioprotective activity in C57BL/6J mouse assessed as effect on splenic LT-HSCs number at 100 mg/kg, sc preincubated with compound for 24 hrs followed by total body irradiation with 6.5 Gy and measured after 10 days; assay type: functional, organism-based; settings: time 11.0 day
[2] = Cmax in ICR mouse at 100 mg/kg, iv measured upto 24 hrs by LC-MS/MS analysis; assay type: ADME, organism-based; settings: in vivo
Mus musculus [3] = experiment: Radioprotective activity in C57BL/6J mouse assessed as fold increase in total number of splenic nucleated cells at 100 mg/kg, sc preincubated with compound for 24 hrs followed by total body irradiation with 6.5 Gy and measured after 10 days; assay type: functional; settings: time 11 day
[4] = Bioavailability in ICR mouse at 100 mg/kg, sc measured upto 24 hrs by LC-MS/MS analysis; assay type: ADME, organism-based; settings: in vivo
Mus musculus [5] = experiment: Radioprotective activity in C57BL/6J mouse assessed as increase in percentage of LK cells at 100 mg/kg, sc preincubated with compound for 24 hrs followed by total body irradiation with 6.5 Gy and measured after 30 days; assay type: functional, organism-based; settings: time 31.0 day
Mus musculus [6] = experiment: Radioprotective activity in C57BL/6J mouse assessed as increase in neutrophils at 100 mg/kg, sc preincubated with compound for 24 hrs followed by total body irradiation with 6.5 Gy and measured after 30 days; assay type: functional, organism-based; settings: time 31.0 day
Mus musculus [7] = experiment: Induction of G-CSF production in C57BL/6J mouse model at 100 mg/kg, sc measured for 24 hrs by ELISA analysis; assay type: functional, organism-based
Mus musculus [8] = experiment: Radioprotective activity in C57BL/6J mouse assessed as increase in RBC count at 100 mg/kg, sc preincubated with compound for 24 hrs followed by total body irradiation with 6.5 Gy and measured after 30 days; assay type: functional, organism-based; settings: time 31.0 day
Mus musculus [9] = experiment: Radioprotective activity in C57BL/6J mouse assessed as increase in ST-HSC number at 100 mg/kg, sc preincubated with compound for 24 hrs followed by total body irradiation with 6.5 Gy and measured after 30 days; assay type: functional, organism-based; settings: time 31.0 day
[10] = MRT (0 to t) in ICR mouse at 100 mg/kg, iv measured upto 24 hrs by LC-MS/MS analysis; assay type: ADME, organism-based; settings: in vivo
[11] = Clearance in ICR mouse at 100 mg/kg, iv measured upto 24 hrs by LC-MS/MS analysis; assay type: ADME, organism-based; settings: in vivo
[12] = Tmax in ICR mouse at 100 mg/kg, iv measured upto 24 hrs by LC-MS/MS analysis; assay type: ADME, organism-based; settings: in vivo
Mus musculus [13] = experiment: Radioprotective activity in C57BL/6J mouse assessed as increase in MPP number at 100 mg/kg, sc preincubated with compound for 24 hrs followed by total body irradiation with 6.5 Gy and measured after 30 days; assay type: functional, organism-based; settings: time 31.0 day
Mus musculus [14] = experiment: Induction of G-CSF production in C57BL/6J mouse model at 100 to 200 mg/kg, sc measured for 24 hrs by ELISA analysis; assay type: functional, organism-based; settings: dose 100-200 mg/kg
Mus musculus [15] = experiment: Radioprotective activity in C57BL/6J mouse assessed as increase in spleen coefficient at 100 mg/kg, sc preincubated with compound for 24 hrs followed by total body irradiation with 6.5 Gy and measured after 10 days; assay type: functional, organism-based; settings: time 11.0 day
[16] = Volume of distribution at steady state in ICR mouse at 100 mg/kg, iv measured upto 24 hrs by LC-MS/MS analysis; assay type: ADME, organism-based; settings: in vivo
Mus musculus [17] = experiment: Induction of G-CSF production in sc dosed C57BL/6J mouse model measured for 24 hrs by ELISA analysis; assay type: functional, organism-based; settings: dose 12.5-200 mg/kg
Mus musculus [18] = experiment: Radioprotective activity in C57BL/6J mouse assessed as effect on LT-HSC number at 100 mg/kg, sc preincubated with compound for 24 hrs followed by total body irradiation with 6.5 Gy and measured after 30 days; assay type: functional, organism-based; settings: time 31.0 day
Mus musculus [19] = experiment: Radioprotective activity in C57BL/6J mouse assessed as increase in platelets count at 100 mg/kg, sc preincubated with compound for 24 hrs followed by total body irradiation with 6.5 Gy and measured after 30 days; assay type: functional, organism-based; settings: time 31.0 day
Mus musculus [20] = experiment: Radioprotective activity in C57BL/6J mouse assessed as splenomegaly at 100 mg/kg, sc preincubated with compound for 24 hrs followed by total body irradiation with 6.5 Gy and measured after 10 days; assay type: functional, organism-based; settings: time 11.0 day
Mus musculus [21] = experiment: Radioprotective activity in C57BL/6J mouse assessed as increase in WBC count at 100 mg/kg, sc preincubated with compound for 24 hrs followed by total body irradiation with 6.5 Gy and measured after 30 days; assay type: functional, organism-based; settings: time 31.0 day
[22] = Tmax in ICR mouse at 100 mg/kg, sc measured upto 24 hrs by LC-MS/MS analysis; assay type: ADME, organism-based; settings: in vivo
[23] = Half life in ICR mouse at 100 mg/kg, iv measured upto 24 hrs by LC-MS/MS analysis; assay type: ADME, organism-based; settings: in vivo
Mus musculus [24] = experiment: Induction of G-CSF production in C57BL/6J mouse model at 12.5 to 25 mg/kg, sc measured for 24 hrs by ELISA analysis; assay type: functional, organism-based; settings: dose 12.5-25 mg/kg
Mus musculus [25] = experiment: Radioprotective activity in C57BL/6J mouse assessed as survival rate at 100 mg/kg, sc preincubated with compound for 24 hrs followed by total body irradiation with 8.5 Gy and measured after 20 days by Kaplan-meier plot analysis; assay type: functional; settings: light or radiation study, 504 h, time 21 day
[26] = MRT (0 to t) in ICR mouse at 100 mg/kg, sc measured upto 24 hrs by LC-MS/MS analysis; assay type: ADME, organism-based; settings: in vivo
Mus musculus [27] = experiment: Induction of G-CSF production in C57BL/6J mouse model at 50 mg/kg, sc measured for 24 hrs by ELISA analysis; assay type: functional, organism-based
Mus musculus [28] = experiment: Radioprotective activity in C57BL/6J mouse assessed as increase in multipotent progenitor frequency in LSK compartment at 100 mg/kg, sc preincubated with compound for 24 hrs followed by total body irradiation with 6.5 Gy and measured after 30 days; assay type: functional, organism-based; settings: time 31.0 day
[29] = Cmax in ICR mouse at 100 mg/kg, sc measured upto 24 hrs by LC-MS/MS analysis; assay type: ADME, organism-based; settings: in vivo
Mus musculus [30] = experiment: Radioprotective activity in C57BL/6J mouse assessed as increase in platelet count at 100 mg/kg, sc preincubated with compound for 24 hrs followed by total body irradiation with 6.5 Gy and measured on day 10; assay type: functional, organism-based; settings: time 11.0 day
Mus musculus [31] = experiment: Radioprotective activity in C57BL/6J mouse assessed as increase in neutrophils at 100 mg/kg, sc preincubated with compound for 24 hrs followed by total body irradiation with 6.5 Gy and measured on day 7; assay type: functional, organism-based; settings: time 8.0 day
Mus musculus [32] = experiment: Radioprotective activity in C57BL/6J mouse assessed as survival rate at 100 mg/kg, sc preincubated with compound for 24 hrs followed by total body irradiation with 9.5 Gy and measured after 30 days by Kaplan-meier plot analysis; assay type: functional; settings: light or radiation study, 744 h, time 31 day
Mus musculus [33] = experiment: Radioprotective activity in C57BL/6J mouse assessed as increase in percentage of LSK cells at 100 mg/kg, sc preincubated with compound for 24 hrs followed by total body irradiation with 6.5 Gy and measured after 30 days; assay type: functional, organism-based; settings: time 31.0 day
Mus musculus [34] = experiment: Radioprotective activity in C57BL/6J mouse assessed as increase in long term hematopoietic stem cell frequency in LSK compartment at 100 mg/kg, sc preincubated with compound for 24 hrs followed by total body irradiation with 6.5 Gy and measured after 30 days; assay type: functional, organism-based; settings: time 31.0 day
[35] = MRT (0 to infinity) in ICR mouse at 100 mg/kg, iv measured upto 24 hrs by LC-MS/MS analysis; assay type: ADME, organism-based; settings: in vivo
Mus musculus [36] = experiment: Radioprotective activity in C57BL/6J mouse assessed as increase in RBC count at 100 mg/kg, sc preincubated with compound for 24 hrs followed by total body irradiation with 6.5 Gy and measured on day 14; assay type: functional, organism-based; settings: time 15.0 day
Mus musculus [37] = experiment: Radioprotective activity in C57BL/6J mouse assessed as survival rate at 100 mg/kg, sc preincubated with compound for 24 hrs followed by total body irradiation with 8.5 Gy and measured after 30 days by Kaplan-meier plot analysis; assay type: functional; settings: Mus musculus, C57BL/6J, light or radiation study, 744 h, time 31 day
[38] = Drug concentration in C57BL/6J mouse plasma at 100 mg/kg, sc measured after 24 hrs; assay type: ADME, organism-based; settings: in vivo
Mus musculus [39] = experiment: Radioprotective activity in C57BL/6J mouse assessed as increase in G-CSF production in serum at 100 mg/kg, sc measured for 6 to 24 hrs; assay type: functional, organism-based; settings: time 6-24 hrs
Mus musculus [40] = experiment: Radioprotective activity in C57BL/6J mouse assessed as increase in G-CSF production in serum at 100 mg/kg, sc measured for 72 hrs; assay type: functional, organism-based
[41] = Stability in C57BL/6J mouse whole blood assessed as half-life; assay type: ADME, tissue-based
Mus musculus [42] = experiment: Radioprotective activity in C57BL/6J mouse assessed as […] in survival rate at 100 mg/kg, sc preincubated with compound for 24 hrs followed by total body irradiation with 9.5 Gy and measured after 30 days by Kaplan-meier plot analysis; assay type: functional, organism-based; settings: time 31.0 day
Mus musculus [43] = experiment: Radioprotective activity in C57BL/6J mouse assessed as increase in G-CSF production in serum at 100 mg/kg, sc; assay type: functional, organism-based; settings: time 24.0 hrs
[44] = Stability in C57BL/6J mouse plasma assessed as half-life; assay type: ADME, cell-free
[45] = Stability in […] human plasma assessed as half-life; assay type: ADME, cell-free
Mus musculus [46] = experiment: Radioprotective activity in C57BL/6J mouse assessed as increase in number of total bone marrow cells at 100 mg/kg, sc preincubated with compound for 24 hrs followed by total body irradiation with 6.5 Gy and measured after 30 days; assay type: functional, organism-based; settings: time 31.0 day

CC(C)=CCC/C(C)=C/CC/C(C)=C/CC[C@]1(C)CCc2cc(O)cc(C)c2O1 [DELTA-TOCOTRIENOL]
Activity (Mus musculus [1]): Active
Cmax [2]: 1.11 ng/mL
fold change (FC) (Mus musculus [3]): ~2.5
F [4]: 2.02%
Activity (Mus musculus [5]): Active
Activity (Mus musculus [6]): Active
Activity (Mus musculus [7]): Active
Activity (Mus musculus [8]): Active
Activity (Mus musculus [9]): Active
MRT last at 24 h [10]: 1.46 h
CL [11]: 264.86 mL/h/kg
Tmax [12]: 4.8 min
Activity (Mus musculus [13]): Active
Activity (Mus musculus [14]): Active
Activity (Mus musculus [15]): Active
Vd ([16]; ICR, read-out: Vdss): 0.437 L/kg
Activity (Mus musculus [17]): Dose-dependent-effect
Activity (Mus musculus [18]): inactive
Activity (Mus musculus [19]): Active
Activity (Mus musculus [20]): Active
Activity (Mus musculus [21]): Active
Tmax [22]: 12 h
half-life [23]: 266 min
Activity (Mus musculus [24]): inactive
survival at 100 mg/kg (Mus musculus [25]): 70%
MRT last at 24 h [26]: 13.9 h
Activity (Mus musculus [27]): Active
Activity (Mus musculus [28]): Active
Cmax [29]: 4.95 ng/mL
Activity (Mus musculus [30]): Active
Activity (Mus musculus [31]): Active
survival at 100 mg/kg (Mus musculus [32]): 60%
Activity (Mus musculus [33]): Active
Activity (Mus musculus [34]): Active
MRT inf ([35]; ICR): 1.63 h
Activity (Mus musculus [36]): Active

CC(C)=CCC/C(C)=C/CC/C(C)=C/CC[C@]1(C)CCc2cc(OC(=O)CCC(=O)O)cc(C)c2O1
Activity (Mus musculus [1]): Active
Cmax [2]: 5.15 ng/mL
fold change (FC) (Mus musculus [3]): ~2.5
survival at 100 mg/kg (Mus musculus [37]): 90%
F [4]: 13.86%
Drug uptake [38]: Active
Activity (Mus musculus [5]): Active
Activity (Mus musculus [6]): Active
Activity (Mus musculus [7]): Active
Activity (Mus musculus [8]): Active
Activity (Mus musculus [9]): Active
MRT last at 24 h [10]: 1.36 h
Activity (Mus musculus [39]): Active
CL [11]: 225.32 mL/h/kg
Tmax [12]: 4.98 min
Activity (Mus musculus [13]): Active
Activity (Mus musculus [15]): Active
Vdss ([16]; iv, 100 mg/kg, 24 h): 336.58 mL/kg
Activity (Mus musculus [40]): Active
half-life [41]: 9.3 min
Activity (Mus musculus [18]): inactive
Activity (Mus musculus [19]): Active
Activity (Mus musculus [20]): Active
Activity (Mus musculus [21]): Active
Tmax [22]: 0.083 h
half-life [23]: 624 min
Activity (Mus musculus [42]): inactive
Activity (Mus musculus [43]): Time-dependent-effect
half-life [44]: 224 min
survival at 100 mg/kg (Mus musculus [25]): 70%
MRT last at 24 h [26]: 11.9 h
half-life [45]: 115 min
Activity (Mus musculus [28]): Active
Cmax [29]: 2.02 ng/mL
Activity (Mus musculus [30]): Active
Activity (Mus musculus [31]): Active
survival at 100 mg/kg (Mus musculus [32]): 90%
Activity (Mus musculus [33]): Active
Activity (Mus musculus [46]): Active
Activity (Mus musculus [34]): Active
MRT ([35]; iv, 100 mg/kg, 24 h): 3.47 h
Activity (Mus musculus [36]): Active
